# Assays:
# [1] = Liver microsomes stability assay (mouse); assay type: in vitro ADME
# Method: The liver microsome stability assay was carried as previously described (Refs. 40-41). NADPH regenerating agent solutions A and B and mouse liver microsomes (CD-1) were obtained from BD Gentest (Woburn, MA). Pooled human liver microsomes were purchased from XenoTech (Lenexa, KS). Ninety-six deep well plates were obtained from Midsci (St. Louis, MO). Ninety-six analytical plates were obtained from Corning Incorporated (Acton, MA). Sample preparation for microsomal stability was modified from Di's publications. A set of incubation times of 0, 15, 30, 60, 120, and 240 min were used. DMSO stock solutions of test compounds and verapamil (system control) were prepared at 10 mM concentration. Concentrated human or mouse liver microsomes (20 mg/mL protein concentration) and 0.5 M EDTA were diluted into 0.1 M potassium phosphate buffer (pH 7.4) and mixed well, followed by compounds solutions being spiked. This solution was mixed and 90 μL was transferred to 6 time points plates (each in triplicate wells). For the time 0 h plate, 3 fold (v:v) cold acetonitrile with internal standard (40 ng/ml warfarin) was added to each well, followed by addition of NADPH regenerating agent (mixing NADPH solutions A and B in PBS, pH7.4) and no incubation. […] The metabolic stability was evaluated via the half-life from least-squares fit of the multiple time points based on first-order kinetics.
# MV4-11 cells = experiment: Lenalidomide competition assay; assay type: cell-based, human; details: co-treatment with lenalidomide 10 μM, 72 h
# Method: Compounds were screened in human cancer cell lines and each cell line was cultured in the complete medium recommended by the vendor and seeded in Corning 8804BC white 384-well assay plates at density of 1,000, 1,000, 1,000, 1,500 and 7,500 cells per well, for MV4-11, HD-MB03, MB004, MB002 and MHH-CALL4 cells respectively. After overnight incubation at 37° C. in a humidified 5% CO2 incubator, cells were treated with compounds in dose-response format using a Pintool on a Biomek FXP Laboratory Automation Workstation (Beckman Coulter). […] After 72 h incubation, cell proliferation was assessed using Cell Titer-Glo (CTG) luminescent cell viability assay (Promega) according to the manufacturer's instruction. Luminescence signal was measured using an Envision plate reader (Perkin-Elmer).
smiles,measurement,setting,value
"O=C1CCC(N2C(=O)c3ccc(NS(=O)(=O)c4ccccc4OC(F)(F)F)cc3C2=O)C(=O)N1 (stereo not drawn) [Compound 1, N-(2-(2,6-dioxopiperidin-3-yl)-1,3-dioxoisoindolin-5-yl)-2-(trifluoromethoxy)benzenesulfonamide]",intrinsic clearance Clint,[1],12 mL/min/kg
same,liver microsomes t1/2,[1],4.7 h
same,antiproliferative effect in presence of lenalidomide,MV4-11 cells,abrogating the antiproliferative effects

# Reference: patent US20240132463A1, “SUBSTITUTED N-(2-(2,6-DIOXOPIPERIDIN-3-YL)-1,3-DIOXOISOINDOLIN-5-YL)ARYLSULFONAMIDE ANALOGS AS MODULATORS OF CEREBLON PROTEIN” (ST. JUDE CHILDREN'S RESEARCH HOSPITAL, INC., priority 2020, published 2024)
